From patent US20080064629A1, “Amphiregulin as a Protective Agent in Acute Hepatic Injury” (priority 2004, published 2008)

Legend:
Format in all cases: cell-based
[1] = system: rat hepatocytes; test: DNA synthesis ([3H]thymidine incorporation) in cultured rat hepatocytes; conditions: for reduction of the effects of AR on DNA synthesis: AR 100 nM, PD98059 10 μM, SP600125 20 μM; for effect on DNA synthesis stimulated by AR (in words): AR 100 nM with PD153035 1 μM, LY294002 20 μM, SB202190 25 μM, TGFβ 8 ng/ml
Protocol: For DNA synthesis, rat hepatocytes were plated to a density of 3×10^4 cells/well in 96-well plates coated with collagen in MEM medium supplemented with 10% FCS. Five hours after plating, the medium was changed and cells were maintained in absence of serum for another 20 hours. DNA synthesis was assayed after 30 h of treatment with AR. A pulse of [^3H]thymidine was administered (1 μCi/well)(Amersham Biosciences, Piscataway, N.J., USA) 22 h after the addition of AR. Cells were harvested, and the incorporation of thymidine was determined with a scintillation counter. Evaluations were made of the effect of AR on DNA synthesis in the presence of MEK1 inhibitor, PD98059, PI-3K inhibitor, LY294002, p38 MAPK inhibitor, SB202190, JNK inhibitor, SP600125, and of the EGF-R tyrosine kinase activity inhibitor, PD153035—all supplied by Calbiochem.

[2] = system: mouse hepatocytes in primary culture; test: Apoptosis induced by actinomycin D and Jo2 antibody in mouse hepatocytes in primary culture; conditions: AR 20 nM; PD153035 1 μM, PD98059 10 μM, LY-294002 20 μM; actinomycin D and Jo2
Text: In order to determine whether the in vivo antiapoptotic effects of AR could be mediated by direct action of AR on liver parenchymal cells, the inventors used mouse hepatocytes in primary culture. It has been reported that hepatocytes exposed to Jo-2 antibodies undergo apoptosis effectively in presence of actinomycin D [(5), (6), (33) Ni, R., Tomita, Y., Matsuda, K., Ichiara, A., Ishimura, K., Ogasawara, J., Nagata, S. 1994. Fas-mediated apoptosis in primary cultured mouse hepatocytes. Exp. Cell Res. 215: 332-337]. Hepatocytes were pretreated with different concentrations of AR during […] before addition of actinomycin D and Jo2 antibody. Measurements of apoptosis and related molecular events, were made 18 h later. […] Likewise, they found antiapoptotic protein Bcl-xL to be induced by treatment with AR in mouse hepatocytes treated with Jo2 (FIG. 4B). In order to identify the AR antiapoptotic signaling mechanisms, PI-3K/Akt and ERK1/2 pathways were studied, as they are general mediators of cell survival [(4), (6)]. […] A key signaling molecule implicated in protection against liver damage induced by Fas is STAT3 [(34) Shen, Y., Devgan, G., Darnell, J. E., Bromberg, J. F. 2001. Constitutively activated Stat3 protects fibroblasts from serum withdrawal and UV-induced apoptosis and antagonizes the proapoptotic effects of activated Statl. Proc. Natl. Acad. Sci. USA. 98: 1543-1548. (35) Haga, S., Terui, K., Zhang, H. Q., Enosawa, S., Ogawa, W., Inoue, H., Okuyama, T., Takeda, K., Akira, S., Ogino, T., et al. 2003. Stat3 protects against Fas-induced liver injury by redox-dependent and -independent mechanisms. J. Clin. Invest. 112: 989-998].
(§1) Hepatocytes were isolated from male Wistar rats (150 g) and C57/BL6 mice (20 g) by perfusion with collagenase (Gibco-BRL, Paisley, UK) as described elsewhere [(18), (20)]. Cells (5×10^5 cells per well) were plated onto 6-well plates coated with collagen (type I collagen, Collaborative Biomedical, Bedford, Mass., USA). Cultures were maintained in MEM medium supplemented with 10% fetal calf serum (FCS), non-essential amino acids, glutamine 2 mM and antibiotics (all supplied by Gibco-BRL). After 2 h of incubation, the medium was removed and cells were again cultured in the same medium with 5% FCS. Where applicable, hepatocytes were treated with IL-1β or TNFα from Roche (Mannheim, Germany), HGF or forskolin from Calbiochem (San Diego, Calif., USA), IL6 from RD Systems (Wiesbaden-Nordenstadt, Germany), or PGE2 from Alexis QBiogene (Carlsbad, Calif., USA).
Apoptosis was induced in cultured mouse hepatocytes by treatment with 0.5 μg/ml of Jo2 antibody and 0.05 μg/ml of actinomycin D as described elsewhere (5). Where applicable, the hepatocytes were treated with AR 6 h before the addition of Jo2 antibody and actinomycin D. Apoptosis was estimated by determining soluble histone-DNA complexes using the Cell Death Detection Assay (Roche). ELISA tests for determining cell death were carried out following the manufacturer's instructions. The specific enrichment of mono- and oligonucleosomes released in the cytoplasm (enrichment factor, EF) was calculated as the ratio between the absorbance values of the samples corresponding to treated cells and control cells. […]
Caspase-3 activity in mouse hepatocytes and liver tissue lysates was assessed using the Caspase-3/CPP32 colorimetric assay kit (BioVision, Palo Alto, Calif., USA). […]

[3] = system: AR gene expression in rat hepatocytes; test: AR gene expression in cultured rat hepatocytes (real time PCR); conditions: IL-1β 2 ng/ml; PGE2 10 μM; forskolin, hydrogen peroxide, menadione data not shown
Protocol: as §1
Total RNA was extracted using TRI reagent (Sigma). […] of RNA were treated with DNase I (Gibco-BRL) before reverse transcription, for which M-MLV enzyme was used (Gibco-BRL) in the presence of RNase OUT (Gibco-BRL). For each PCR reaction 1/10 of each preparation of cDNA was used. PCR products were subjected to electrophoresis in 2% agarose gels, followed by staining with ethidium bromide and quantification using Molecular Analyst software (Bio-Rad, Hercules, Calif., USA). Data were normalized with respect to β-actin gene expression levels. […] All primers were designed to distinguish between the amplification of genomic DNA and cDNA, and all products were sequenced to confirm specificity. The primers used are described below in Table I: […]
Real time PCR was performed using an iCycler (BioRad) and iQ SYBR Green Supermix (Bio-Rad). In order to monitor the specificity of final PCR products, the latter were analysed by fusion curves and electrophoresis. The amount of each transcript was expressed as n-fold the difference versus expression of the reference gene (β-actin)(2^ΔCt, where ΔCt represents the difference in threshold cycle between target genes and control gene).

| Compound | effect on DNA synthesis stimulated by AR (in words) [1] | AR gene expression [3] | other results |
| --- | --- | --- | --- |
| COc1cccc(-c2cc(=O)c3ccccc3o2)c1N [PD98059, reference compound] | – | – | reduction of the effects of AR on DNA synthesis [1]: 70%; effect of inhibitor on the protection against apoptosis afforded by AR [2]: did not interfere |
| COc1cc2ncnc(Nc3cccc(Br)c3)c2cc1OC [PD153035, reference compound] | completely prevents | – | effect of inhibitor on the protection against apoptosis afforded by AR [2]: protection afforded by AR was lost |
| CCCCC[C@H](O)/C=C/[C@H]1[C@H](O)CC(=O)[C@@H]1C/C=C\CCCC(=O)O [PGE2, prostaglandin E2] | – | rapid induction | – |
| Oc1ccc(-c2nc(-c3ccncc3)c(-c3ccc(F)cc3)[nH]2)cc1 [SB202190] | no significant effect | – | – |
| Oc1c2ccccc2c2c3c(cccc13)N=N2 [SP600125] | – | – | reduction of the effects of AR on DNA synthesis [1]: 70% |
| OO [hydrogen peroxide] | – | no effect | – |
| CC1=CC(=O)c2ccccc2C1=O [menadione] | – | no effect | – |
| IL-1β: cytokine implicated in liver inflammatory and regenerative processes (Roche) | – | stimulate AR gene expression | – |
| transforming growth factor β [TGFβ] | abrogated | – | – |
